# Measured values published in patent US12433908B2, “Use of nicotinamide riboside, nicotinic acid riboside, and nicotinamide mononucleotide, reduced nicotinyl compounds, and nicotinoyl compound derivatives in infant formula for healthy development” (ChromaDex, Inc., priority 2016, dated 2025).
# Assay: CBC analysis of piglets given NR solution
# Type: in vivo, piglets (Yorkshire/Hampshire crossbred)
# Text: Sixteen (n=16) Yorkshire/Hampshire crossbred piglets were obtained from the University of California, Davis Swine Teaching and Research Center and received on lactation day (“LD”) 14. Prior to arrive, the piglets were processed by the suppler between 1-3 days of age by administration of iron and an antibiotic ([…] for swine) as is common practice at the University of California, Davis Swine Facility. It is not common practice at the University of California, Davis Swine Facility to give a second dose of iron and antibiotics unless it becomes necessary. The piglets were from two litters (litters 15 and 17), weaned at 17 days of age, and randomly placed into one of two groups balanced for litter, sex, and weight. The animals were not acclimated to the facility at arrival and were subsequently acclimated to the test diet administration system. The piglets were weaned into a temperature-controlled room (approximately 27-29° C.) that contained 10 adjacent pens. The piglets were group-housed in the nursery room at the Swine Facility, which is an enclosed room with access restricted to trained personnel. The two groups were separated by one pen containing piglets of similar age. Each morning enough nicotinamide riboside (NR, I) in water solution was prepared for that day's dose administration according to the dose preparation protocol. At least 5 mL of prepared dose was reserved and immediately frozen after preparation each day for analysis of nicotinamide riboside (NR, I) for the purpose of confirming stability of the dose material. The doses were stored at refrigeration temperature while not in use. Nicotinamide riboside (NR, I) was dosed once per day in the morning and at the same time each day. Piglets in the control group received the same volume of plain water and were dosed on the same schedule. Starting on Day 1, animals in the nicotinamide riboside (NR, I) group were dosed once daily (in the morning) with 277 mg nicotinamide riboside (NR, I) per pig resuspended in water for seven days. After one week, animals were dosed once daily with 342 mg nicotinamide riboside (NR, I) per pig delivered in 2.5 mL for seven days. For Days 1 and 2, the nicotinamide riboside (NR, I) solution was prepared by resuspending 2770 mg nicotinamide riboside (NR, I) in 50 mL water, and 5 mL of this solution was delivered to each pig by squirting it into the back of the mouth using a 10 mL syringe with a piece of tubing attached to the end. To reduce the volume to more efficiently deliver the nicotinamide riboside (NR, I) solution, the 2770 mg was resuspended in 25 mL water and 2.5 mL of the solution was squirted into the back of the mouth of each pig using a 3 mL syringe for Days 3-7. For Days 8-14, 3420 mg nicotinamide riboside (NR, I) was resuspended in 25 mL water and 2.5 mL of this solution was delivered to each pig. Each day prior to dosing, 2.5 mL of the nicotinamide riboside (NR, I) (5 mL on Days 1 and 2) were placed into a separate tube and frozen. Blood was collected from each pig via jugular venipuncture on Days 1, 8, and 14. In each instance, blood was collected prior to dosing with nicotinamide riboside (NR, I). On Day 1, the sow was removed from the piglets for approximately three hours prior to sample collection. On Days 8 and 14, feed was removed from the animals' pens 12 hours prior to sample collection. Blood was collected into purple-top vacutainers for CBC analysis and into red-top vacutainers for blood chemistry analysis. CBC analysis was performed at IDEXX Laboratories in West Sacramento, California using the Sysmex XT-iV Vet Hematology Autoanalyzer (Sysmex America Inc., Lincolnshire, Illinois). Red-top tubes were spun to collect serum and the serum frozen. Frozen aliquots (500 μL) were submitted to the University of California, Davis Veterinary medicine Teaching Hospital Clinical Diagnostic Laboratory for Blood Chemistry Analysis using the Cobas 6000 C501 Clinical Chemistry Analyzer (Roche Diagnostics, Indianapolis, IN). […]
# [1] = Wk 1, 277 mg/pig once daily oral
# [2] = Wk 2, 342 mg/pig once daily oral Days 8-14
smiles,measurement,setting,value
"NC(=O)c1ccc[n+]([C@@H]2O[C@H](CO)[C@@H](O)[C@H]2O)c1 [NR, Nicotinamide riboside]","Basophils, %","Baseline, before dosing",0.57%
same,"Basophils, count","Baseline, before dosing",60 cells/μL
same,"Eosinophils, %","Baseline, before dosing",1.11%
same,"Eosinophils, count","Baseline, before dosing",108 cells/μL
same,HCT,"Baseline, before dosing",29.9%
same,HGB,"Baseline, before dosing",10.4 g/dL
same,"Lymphocytes, %","Baseline, before dosing",65.8%
same,"Lymphocytes, count","Baseline, before dosing",6.48 ×10^3 cells/μL
same,MCH,"Baseline, before dosing",16.0 pg
same,MCHC,"Baseline, before dosing",34.3 g/dL
same,MCV,"Baseline, before dosing",46.2 fL
same,"Monocytes, %","Baseline, before dosing",6.17%
same,"Monocytes, count","Baseline, before dosing",596 cells/μL
same,Neutrophil/Lymphocyte,"Baseline, before dosing",0.41
same,"Neutrophils, %","Baseline, before dosing",26.3%
same,"Neutrophils, count","Baseline, before dosing",2.47 ×10^3 cells/μL
same,RBC,"Baseline, before dosing",6.45 M/μL
same,WBC,"Baseline, before dosing",9.7 ×10^3 cells/μL
same,"Basophils, %",[1],0.49%
same,"Basophils, count",[1],68 cells/μL
same,"Eosinophils, %",[1],1.52%
same,"Eosinophils, count",[1],213 cells/μL
same,HCT,[1],27.3%
same,HGB,[1],9.4 g/dL
same,"Lymphocytes, %",[1],51.0%
same,"Lymphocytes, count",[1],6.34 ×10^3 cells/μL
same,MCH,[1],15.4 pg
same,MCHC,[1],34.7 g/dL
same,MCV,[1],44.7 fL
same,"Monocytes, %",[1],6.01%
same,"Monocytes, count",[1],803 cells/μL
same,Neutrophil/Lymphocyte,[1],0.85
same,"Neutrophils, %",[1],40.9%
same,"Neutrophils, count",[1],5.41 ×10^3 cells/μL
same,RBC,[1],6.06 M/μL
same,WBC,[1],12.8 ×10^3 cells/μL
same,"Basophils, %",[2],0.30%
same,"Basophils, count",[2],61 cells/μL
same,"Eosinophils, %",[2],1.07%
same,"Eosinophils, count",[2],179 cells/μL
same,HCT,[2],26%
same,HGB,[2],9.4 g/dL
same,"Lymphocytes, %",[2],54.9%
same,"Lymphocytes, count",[2],10.31 ×10^3 cells/μL
same,MCH,[2],15.5 pg
same,MCHC,[2],35.2 g/dL
same,MCV,[2],44.2 fL
same,"Monocytes, %",[2],6.80%
same,"Monocytes, count",[2],1336 cells/μL
same,Neutrophil/Lymphocyte,[2],0.73
same,"Neutrophils, %",[2],36.9%
same,"Neutrophils, count",[2],7.59 ×10^3 cells/μL
same,RBC,[2],6.11 M/μL
same,WBC,[2],19.5 ×10^3 cells/μL
same,"CBC and serum chemistries, NR vs. control",baseline and weekly for the 2-week intervention,no statistically significant differences
